Source: ChEMBL document CHEMBL4665648, “Potent and selective inhibitors of receptor-interacting protein kinase 1 that lack an aromatic back pocket group” (Bioorg Med Chem Lett, 2019)

Experiments:
[1] = molecular target: Tyrosine-protein kinase FRK (Homo sapiens) (UniProt P42685); assay: Inhibition of recombinant human GST-tagged full length FRK expressed in baculovirus expression system using Tyr 01 as substrate at 10 uM incubated for 60 mins by Z'-Lyte assay relative to control
[2] = molecular target: G protein-coupled receptor kinase 5 (Homo sapiens) (UniProt P34947); assay: Inhibition of recombinant human GST-tagged full length GRK5 expressed in baculovirus expression system using Ser/Thr 16 as substrate at 10 uM incubated for 60 mins by Z'-Lyte assay relative to control
[3] = molecular target: G protein-coupled receptor kinase 6 (Homo sapiens) (UniProt P43250); assay: Inhibition of recombinant human GST-tagged full length GRK6 expressed in baculovirus expression system using Ser/Thr 16 as substrate at 10 uM incubated for 60 mins by Z'-Lyte assay relative to control
[4] = molecular target: 5'-AMP-activated protein kinase catalytic subunit alpha-1 (Homo sapiens) (UniProt Q13131); assay: Inhibition of PRKAA1 (unknown origin) by selectscreen kinase assay; conditions: dose 10.0 µM, time 60.0 min
[5] = molecular target: Serine/threonine-protein kinase 26 (Homo sapiens) (UniProt Q9P289); assay: Inhibition of recombinant human GST-tagged full length MST4 expressed in baculovirus expression system using Ser/Thr 07 as substrate at 10 uM incubated for 60 mins by Z'-lyte assay relative to control
[6] = molecular target: Insulin receptor-related protein (Homo sapiens) (UniProt P14616); assay: Inhibition of recombinant human GST-tagged IRR (944 to 1297 residues) expressed in baculovirus expression system using Tyr 04 as substrate at 10 uM incubated for 60 mins by Z'-lyte assay relative to control
[7] = Lipophilicity, logD of compound at pH 7.4; format: physicochemical; conditions: buffer
[8] = molecular target: Tyrosine-protein kinase Blk (Homo sapiens) (UniProt P51451); assay: Inhibition of recombinant human His-tagged full length BLK expressed in baculovirus expression system using Tyr 01 as substrate at 10 uM incubated for 60 mins by Z'-Lyte assay relative to control
[9] = molecular target: Rho-associated protein kinase 2 (Homo sapiens) (UniProt O75116); assay: Inhibition of recombinant human N-terminal GST-tagged ROCK2 (1 to 552 residues) expressed in baculovirus expression system using Ser/Thr 13 as substrate at 10 uM incubated for 60 mins by Z'-Lyte assay relative to control
[10] = molecular target: Aurora kinase A (Homo sapiens) (UniProt O14965); assay: Inhibition of recombinant human His-tagged full length Aurora A expressed in baculovirus expression system using Ser/Thr 01 as substrate at 10 uM incubated for 60 mins by Z'-Lyte assay relative to control
[11] = molecular target: cAMP-dependent protein kinase catalytic subunit PRKX (Homo sapiens) (UniProt P51817); assay: Inhibition of recombinant human GST-tagged full length PRKX expressed in baculovirus expression system using Ser/Thr 01 as substrate at 10 uM incubated for 60 mins by Z'-lyte assay relative to control
[12] = molecular target: ALK tyrosine kinase receptor (Homo sapiens) (UniProt Q9UM73); assay: Inhibition of recombinant human GST-tagged […] (1058 to 1620 residues) expressed in baculovirus expression system using Tyr 01 as substrate at 10 uM incubated for 60 mins by Z'-Lyte assay relative to control
[13] = molecular target: Serine/threonine-protein kinase mTOR (Homo sapiens) (UniProt P42345); assay: Inhibition of recombinant human GST-tagged mTOR (1360 to 2549 residues) expressed in Escherichia coli expression system using Ser/Thr 11 as substrate at 10 uM incubated for 60 mins by Z'-Lyte assay relative to control
[14] = molecular target: Serine/threonine-protein kinase Chk2 (Homo sapiens) (UniProt O96017); assay: Inhibition of recombinant human His-tagged full length CHK2 expressed in baculovirus expression system using Ser/Thr 07 as substrate at 10 uM incubated for 60 mins by Z'-Lyte assay relative to control
[15] = molecular target: High affinity nerve growth factor receptor (Homo sapiens) (UniProt P04629); assay: Inhibition of recombinant human His-tagged TRKA (441 to 796 residues) expressed in baculovirus expression system using Tyr 01 as substrate at 10 uM incubated for 60 mins by Z'-Lyte assay relative to control
[16] = molecular target: Casein kinase II subunit alpha (Homo sapiens) (UniProt P68400); assay: Inhibition of recombinant human His-tagged full length CK2alpha1 expressed in baculovirus expression system using Ser/Thr 1 as substrate at 10 uM incubated for 60 mins by Z'-Lyte assay relative to control
[17] = molecular target: Dual specificity protein kinase CLK2 (Homo sapiens) (UniProt P49760); assay: Inhibition of recombinant human GST-tagged CLK2 (137 to 498 residues) expressed in baculovirus expression system using Ser/Thr 06 as substrate at 10 uM incubated for 60 mins by Z'-Lyte assay relative to control
[18] = molecular target: NUAK family SNF1-like kinase 1 (Homo sapiens) (UniProt O60285); assay: Inhibition of recombinant human His-tagged full length ARK5 expressed in baculovirus expression system using CHKtide as substrate at 10 uM incubated for 60 mins by Adapta assay relative to control
[19] = molecular target: Serine/threonine-protein kinase PAK 6 (Homo sapiens) (UniProt Q9NQU5); assay: Inhibition of recombinant human His-tagged full length PAK6 expressed in baculovirus expression system using Ser/Thr 20 as substrate at 10 uM incubated for 60 mins by Z'-lyte assay relative to control
[20] = molecular target: Mitogen-activated protein kinase kinase kinase 8 (Homo sapiens) (UniProt P41279); assay: Inhibition of recombinant human GST-tagged TPL2 (30 to 397 residues) expressed in baculovirus expression system using Ser/Thr 03 as substrate at 10 uM incubated for 60 mins by Z'-Lyte assay relative to control
[21] = molecular target: STE20-like serine/threonine-protein kinase (Homo sapiens) (UniProt Q9H2G2); assay: Inhibition of tracer 236 binding to recombinant human GST-tagged full length SLK expressed in baculovirus expression system at 10 uM incubated for 60 mins by Lanthascreen assay relative to control
[22] = molecular target: Inhibitor of nuclear factor kappa-B kinase subunit epsilon (Homo sapiens) (UniProt Q14164); assay: Inhibition of recombinant human GST-tagged full length IKKepsilon expressed in baculovirus expression system using Ser/Thr 11 as substrate at 10 uM incubated for 60 mins by Z'-lyte assay relative to control
[23] = molecular target: Homeodomain-interacting protein kinase 1 (Homo sapiens) (UniProt Q86Z02); assay: Inhibition of recombinant human N-terminal GST-tagged HIPK1 (158 to 555 residues) expressed in baculovirus expression system using Ser/Thr 09 as substrate at 10 uM incubated for 60 mins by Z'-Lyte assay relative to control
[24] = Half life in Sprague-Dawley rat at 0.5 mg/kg, iv or 2 mg/kg, po; format: ADME, organism-based; conditions: in vivo
[25] = molecular target: Mitogen-activated protein kinase 14 (Homo sapiens) (UniProt Q16539); assay: Inhibition of recombinant human GST-tagged full length p38 alpha expressed in Escherichia coli expression system using Ser/Thr 15 as substrate at 10 uM incubated for 60 mins by Z'-Lyte assay relative to control

Sequence of Casein kinase II subunit alpha (Homo sapiens) (P68400 whole entry, looked up, the tested form may be a part): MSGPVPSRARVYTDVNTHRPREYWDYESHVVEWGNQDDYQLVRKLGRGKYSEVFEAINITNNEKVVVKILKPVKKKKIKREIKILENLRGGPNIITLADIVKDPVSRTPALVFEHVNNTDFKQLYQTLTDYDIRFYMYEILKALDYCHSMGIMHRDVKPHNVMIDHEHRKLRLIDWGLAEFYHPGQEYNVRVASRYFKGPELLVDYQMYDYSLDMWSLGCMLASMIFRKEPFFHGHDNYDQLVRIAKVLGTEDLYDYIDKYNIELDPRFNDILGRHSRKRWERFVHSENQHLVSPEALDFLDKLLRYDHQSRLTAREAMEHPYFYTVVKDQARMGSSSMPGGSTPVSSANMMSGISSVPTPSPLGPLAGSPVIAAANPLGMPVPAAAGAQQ
Sequence of Homeodomain-interacting protein kinase 1 (Homo sapiens) (Q86Z02 whole entry, looked up, the tested form may be a part): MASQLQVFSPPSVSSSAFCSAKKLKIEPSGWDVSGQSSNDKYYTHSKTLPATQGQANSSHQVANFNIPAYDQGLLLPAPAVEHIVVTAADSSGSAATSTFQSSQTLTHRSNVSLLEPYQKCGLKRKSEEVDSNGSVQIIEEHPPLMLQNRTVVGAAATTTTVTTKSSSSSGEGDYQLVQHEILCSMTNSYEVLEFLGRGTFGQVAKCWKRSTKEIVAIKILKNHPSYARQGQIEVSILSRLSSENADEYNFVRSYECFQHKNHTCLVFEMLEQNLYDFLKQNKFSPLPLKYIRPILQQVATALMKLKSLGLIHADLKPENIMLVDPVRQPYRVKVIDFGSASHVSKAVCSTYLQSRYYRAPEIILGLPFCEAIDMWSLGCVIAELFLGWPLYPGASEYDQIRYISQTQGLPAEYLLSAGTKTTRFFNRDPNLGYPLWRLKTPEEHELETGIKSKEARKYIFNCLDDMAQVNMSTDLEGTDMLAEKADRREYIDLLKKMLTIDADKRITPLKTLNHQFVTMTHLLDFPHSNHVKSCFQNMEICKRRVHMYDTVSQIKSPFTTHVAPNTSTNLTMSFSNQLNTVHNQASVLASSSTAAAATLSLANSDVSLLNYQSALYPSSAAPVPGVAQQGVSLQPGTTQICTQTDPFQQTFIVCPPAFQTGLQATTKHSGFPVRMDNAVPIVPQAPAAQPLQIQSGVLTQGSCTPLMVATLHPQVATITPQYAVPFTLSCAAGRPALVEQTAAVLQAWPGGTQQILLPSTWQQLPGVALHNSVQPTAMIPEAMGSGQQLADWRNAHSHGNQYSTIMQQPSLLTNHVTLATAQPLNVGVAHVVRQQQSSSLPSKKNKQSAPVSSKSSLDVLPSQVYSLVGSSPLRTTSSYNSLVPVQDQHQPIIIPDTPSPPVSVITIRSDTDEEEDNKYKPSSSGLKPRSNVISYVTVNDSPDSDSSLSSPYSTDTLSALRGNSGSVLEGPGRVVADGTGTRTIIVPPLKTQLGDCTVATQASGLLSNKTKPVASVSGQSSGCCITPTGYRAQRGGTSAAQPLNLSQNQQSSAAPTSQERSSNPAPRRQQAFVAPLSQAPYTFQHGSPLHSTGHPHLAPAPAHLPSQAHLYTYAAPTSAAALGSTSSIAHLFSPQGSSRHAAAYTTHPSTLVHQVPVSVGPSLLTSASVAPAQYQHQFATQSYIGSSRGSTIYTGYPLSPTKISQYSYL
Sequence of Inhibitor of nuclear factor kappa-B kinase subunit epsilon (Homo sapiens) (Q14164 whole entry, the tested form may be a part): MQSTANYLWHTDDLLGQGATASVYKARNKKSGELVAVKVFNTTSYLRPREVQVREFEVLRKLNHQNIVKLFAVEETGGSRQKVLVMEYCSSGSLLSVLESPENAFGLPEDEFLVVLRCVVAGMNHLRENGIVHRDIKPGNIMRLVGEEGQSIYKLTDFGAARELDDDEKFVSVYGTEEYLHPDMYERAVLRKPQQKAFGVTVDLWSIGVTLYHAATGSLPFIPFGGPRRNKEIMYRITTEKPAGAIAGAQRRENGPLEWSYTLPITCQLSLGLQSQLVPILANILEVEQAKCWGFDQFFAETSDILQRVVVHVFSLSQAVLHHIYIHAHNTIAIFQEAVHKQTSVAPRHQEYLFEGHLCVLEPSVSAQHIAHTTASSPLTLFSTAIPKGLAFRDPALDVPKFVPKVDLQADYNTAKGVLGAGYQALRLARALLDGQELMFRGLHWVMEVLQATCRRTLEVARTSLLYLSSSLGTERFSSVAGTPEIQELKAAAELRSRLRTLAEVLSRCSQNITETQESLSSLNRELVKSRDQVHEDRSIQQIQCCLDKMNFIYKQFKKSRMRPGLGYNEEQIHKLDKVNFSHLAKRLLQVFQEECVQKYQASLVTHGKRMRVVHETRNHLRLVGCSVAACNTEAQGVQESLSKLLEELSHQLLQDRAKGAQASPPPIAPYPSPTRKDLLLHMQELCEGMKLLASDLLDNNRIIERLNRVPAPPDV
Sequence of Dual specificity protein kinase CLK2 (Homo sapiens) (P49760 whole entry, looked up, the tested form may be a part): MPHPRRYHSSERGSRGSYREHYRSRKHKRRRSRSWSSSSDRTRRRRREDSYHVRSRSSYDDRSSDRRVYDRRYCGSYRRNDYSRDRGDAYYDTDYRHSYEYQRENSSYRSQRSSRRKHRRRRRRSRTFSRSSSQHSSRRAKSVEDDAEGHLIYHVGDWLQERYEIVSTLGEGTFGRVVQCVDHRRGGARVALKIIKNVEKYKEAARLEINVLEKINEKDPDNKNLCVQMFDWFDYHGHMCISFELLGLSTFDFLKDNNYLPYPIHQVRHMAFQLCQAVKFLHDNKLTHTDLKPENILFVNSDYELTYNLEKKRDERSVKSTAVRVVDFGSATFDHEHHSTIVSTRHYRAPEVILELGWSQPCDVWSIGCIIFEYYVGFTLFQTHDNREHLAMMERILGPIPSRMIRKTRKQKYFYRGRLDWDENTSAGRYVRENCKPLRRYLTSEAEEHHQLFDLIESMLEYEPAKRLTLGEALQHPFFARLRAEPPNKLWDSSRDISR
Sequence of Tyrosine-protein kinase FRK (Homo sapiens) (P42685 whole entry): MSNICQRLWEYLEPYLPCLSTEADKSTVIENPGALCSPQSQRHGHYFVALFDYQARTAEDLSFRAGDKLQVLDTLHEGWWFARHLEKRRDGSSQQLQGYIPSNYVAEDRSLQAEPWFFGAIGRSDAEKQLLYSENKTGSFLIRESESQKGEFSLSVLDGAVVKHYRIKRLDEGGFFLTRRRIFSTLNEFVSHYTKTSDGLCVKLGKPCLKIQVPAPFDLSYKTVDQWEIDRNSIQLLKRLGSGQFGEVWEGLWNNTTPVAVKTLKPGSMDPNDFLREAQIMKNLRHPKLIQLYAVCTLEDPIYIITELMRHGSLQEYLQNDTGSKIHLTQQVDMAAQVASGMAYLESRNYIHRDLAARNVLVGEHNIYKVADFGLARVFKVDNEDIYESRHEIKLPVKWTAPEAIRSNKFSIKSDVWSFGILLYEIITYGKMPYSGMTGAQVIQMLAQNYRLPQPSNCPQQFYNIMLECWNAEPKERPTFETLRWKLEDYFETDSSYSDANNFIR
Sequence of Mitogen-activated protein kinase kinase kinase 8 (Homo sapiens) (P41279 whole entry, the tested form may be a part): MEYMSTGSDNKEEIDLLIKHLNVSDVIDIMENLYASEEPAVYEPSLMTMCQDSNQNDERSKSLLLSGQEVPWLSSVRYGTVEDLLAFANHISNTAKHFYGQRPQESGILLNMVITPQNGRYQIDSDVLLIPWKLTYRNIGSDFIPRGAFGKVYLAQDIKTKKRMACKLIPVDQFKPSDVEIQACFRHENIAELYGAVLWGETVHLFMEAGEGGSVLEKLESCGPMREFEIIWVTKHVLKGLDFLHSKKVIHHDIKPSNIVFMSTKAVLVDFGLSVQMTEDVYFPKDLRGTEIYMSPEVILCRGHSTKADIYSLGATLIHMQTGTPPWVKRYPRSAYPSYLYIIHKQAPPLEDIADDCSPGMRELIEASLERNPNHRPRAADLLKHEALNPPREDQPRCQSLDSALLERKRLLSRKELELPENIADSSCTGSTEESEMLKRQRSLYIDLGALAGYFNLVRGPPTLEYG
Sequence of STE20-like serine/threonine-protein kinase (Homo sapiens) (Q9H2G2 whole entry, looked up): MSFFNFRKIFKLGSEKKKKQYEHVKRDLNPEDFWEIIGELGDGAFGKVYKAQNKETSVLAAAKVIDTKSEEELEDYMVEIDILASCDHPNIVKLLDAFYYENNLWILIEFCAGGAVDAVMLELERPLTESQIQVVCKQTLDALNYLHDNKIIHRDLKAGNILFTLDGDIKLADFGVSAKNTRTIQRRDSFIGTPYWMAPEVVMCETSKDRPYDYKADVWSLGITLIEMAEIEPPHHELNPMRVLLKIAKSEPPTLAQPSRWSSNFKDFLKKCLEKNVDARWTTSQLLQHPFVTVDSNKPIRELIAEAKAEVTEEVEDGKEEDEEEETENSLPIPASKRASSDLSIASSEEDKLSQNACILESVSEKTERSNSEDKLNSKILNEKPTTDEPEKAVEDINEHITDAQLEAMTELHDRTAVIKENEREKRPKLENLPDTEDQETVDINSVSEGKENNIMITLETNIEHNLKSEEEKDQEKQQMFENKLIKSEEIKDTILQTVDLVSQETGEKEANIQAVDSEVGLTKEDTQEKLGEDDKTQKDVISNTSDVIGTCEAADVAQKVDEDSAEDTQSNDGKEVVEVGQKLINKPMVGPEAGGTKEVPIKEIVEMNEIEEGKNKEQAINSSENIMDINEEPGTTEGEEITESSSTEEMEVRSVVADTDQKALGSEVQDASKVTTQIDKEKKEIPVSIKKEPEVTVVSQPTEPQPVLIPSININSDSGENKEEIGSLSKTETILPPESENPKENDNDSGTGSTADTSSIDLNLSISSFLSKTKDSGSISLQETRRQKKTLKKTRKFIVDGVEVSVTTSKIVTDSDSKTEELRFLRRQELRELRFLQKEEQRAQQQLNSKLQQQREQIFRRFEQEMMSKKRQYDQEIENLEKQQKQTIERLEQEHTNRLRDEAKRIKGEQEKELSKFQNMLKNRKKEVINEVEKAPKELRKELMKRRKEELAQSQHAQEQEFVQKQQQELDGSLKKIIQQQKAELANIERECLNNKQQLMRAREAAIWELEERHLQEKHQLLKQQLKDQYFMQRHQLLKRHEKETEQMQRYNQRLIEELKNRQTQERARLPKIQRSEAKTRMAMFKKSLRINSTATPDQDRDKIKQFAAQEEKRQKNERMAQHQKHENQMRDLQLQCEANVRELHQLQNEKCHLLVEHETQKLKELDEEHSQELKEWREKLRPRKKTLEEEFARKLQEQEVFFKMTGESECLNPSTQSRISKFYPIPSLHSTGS

Question: For CN1C(=O)[C@@H](NC(=O)c2n[nH]c3ncc(C(F)(F)C(F)(F)F)cc23)COc2ccccc21, which inhibition [1] is on record?
Answer: Its inhibition is 5%.

Question: And the inhibition [2]?
Answer: The inhibition was 7.5%.

Question: And the inhibition [3]?
Answer: Its inhibition is -0.5%.

Question: What about the inhibition [4] of the same compound?
Answer: The inhibition was 3%.

Question: What about the inhibition [5] of the same compound?
Answer: The inhibition was 8.5%.

Question: And the inhibition [6]?
Answer: Its inhibition is 6.5%.

Question: And the logD [7]?
Answer: The logD was 4.1.

Question: What about the inhibition [8] of the same compound?
Answer: Its inhibition is 2%.

Question: What about the inhibition [9] of the same compound?
Answer: The inhibition was -3%.

Question: And the inhibition [10]?
Answer: The inhibition was 0%.

Question: What about the inhibition [11] of the same compound?
Answer: The inhibition was 4.5%.

Question: And the inhibition [12]?
Answer: The inhibition was 3%.

Question: And the inhibition [13]?
Answer: The inhibition was 1.5%.

Question: And the inhibition [14]?
Answer: The inhibition was 0.5%.

Question: What about the inhibition [15] of the same compound?
Answer: Its inhibition is 3%.

Question: What about the inhibition [16] of the same compound?
Answer: Its inhibition is 4.5%.

Question: And the inhibition [17]?
Answer: Its inhibition is 24%.

Question: What about the inhibition [18] of the same compound?
Answer: Its inhibition is 8.5%.

Question: And the inhibition [19]?
Answer: Its inhibition is 7%.

Question: And the inhibition [20]?
Answer: Its inhibition is 6.5%.

Question: What about the inhibition [21] of the same compound?
Answer: The inhibition was 5%.

Question: What about the inhibition [22] of the same compound?
Answer: The inhibition was 1.5%.

Question: And the inhibition [23]?
Answer: The inhibition was 5%.

Question: What about the half-life [24] of the same compound?
Answer: Its half-life is 4.8 h.

Question: What about the inhibition [25] of the same compound?
Answer: Its inhibition is 0.5%.
